≈ marks a conversion by molar mass, not a printed value.
What was measured:
[1] = test system: mice treated with yeast polysaccharide; assay: Visceral pain behavior test in chronic visceral pain model; format: in vivo; conditions: for Number of visceral pain scores: 28 days after yeast polysaccharide treatment
Method: Chronic Visceral Pain Model
(§1) The visceral pain is induced by injecting yeast polysaccharide into the mice colony, and the yeast polysaccharide is derived from Saccharomyces cerevisiae (Sigma), wherein one kind of dextran is resident on the cell wall of the yeast and is identified as a protein-carbohydrate complex. Specifically, the mice were anesthetized after inhaling 1-3% isoflurane, and then a […] suspension of yeast polysaccharide (formulated as a 30 mg/ml solution in physiological saline) was injected into the colon of the mice by using a 24 mm long plastic feed needle within 2 minutes. The control group was injected with 0.1 ml physiological saline. The yeast polysaccharide or physiological saline was injected daily for 3 days. A visceral pain behavior test was carried out according to the Laird procedure. The number of times the mice licking the abdomen within 10 minutes was recorded, excluding other grooming behaviors, stretching of whole body, pressing the abdomen against the floor, and an 1-2-second arched posture. On day 1, 7 and 14 after the injection into the colon, an open field test was carried out from 9 am to 12 pm, and the entire test was a double-blind test. Prior to the behavioral test, the mice were acclimated for 30 minutes in an observation room. The mice were placed at the middle of a new open zone (43.2×43.2×30.5 cm^3) with micro light (<50 lux) and a fan. The movement distance, vertical count, movement count, stereotypic behavior count, and jumping count of animals were recorded within 30 minutes by means of an activity monitoring system equipped with multiple pairs of packaged light beam sets.
The physiological saline, non-crystalline NB001 (3 mg/kg), the crystal of the present invention (3 mg/kg), and Gabapentin (30 mg/kg) as a positive control were intraperitoneally injected (IP) into the mice treated with yeast polysaccharide respectively. The behaviors of Mice were observed 28 days after the yeast polysaccharide treatment.

[2] = test system: mice treated with yeast polysaccharide; assay: Elevated plus maze test (EPM), visceral pain; format: in vivo; conditions: for % time in the open arm: Visceral pain
Method: as §1
(§2) An anxious animal model of the prior art—the elevated plus maze test (EPM) was adopted. The mice were acclimated for 30 minutes in the room prior to the behavior observation. The EPM was composed of two open arms (250 lux) and two closed arms (350 lux) arranged opposite to each other. For each test, an individual animal was placed at the center of the test position and allowed to move freely. The test is carried out for 5 minutes. The number of entering the test position for each arm and the time spent therefore were recorded.
(§3) The EPM test tested the anxiety behavior of mice after the test treatment. The physiological saline, non-crystalline NB001 (3 mg/kg), the crystal of the present invention (3 mg/kg), and Gabapentin (30 mg/kg) as a positive control were intraperitoneally injected (IP) into the mice treated with yeast polysaccharide respectively. The behaviors of Mice were observed 28 days after the yeast polysaccharide treatment.

[3] = test system: bone cancer pain model in rat (Walker 256 cells); assay: Paw withdrawal thermal latency (PWL) in bone cancer pain model; format: in vivo, SD rats; conditions: twice daily for 3 days, PWL at 2 h after last administration (21d)
Method: 1. Animals 50 SD rats (180-220 g), placed under a quiet and warm (22° C.) environment without strong light irradiation, having free access to feed and water.
2. Cell Culture: SD Rat homologous cancer cell strains Walker 256 preserved by the Laboratory Animal Center, Forth Military Medical
University, or a commercially available product can be used. RPMI 1640 culture medium (Gibco Inc. of US, containing 100 U/ml each of 10% fetal bovine serum, penicillin, and streptomycin) was used, and the tumor cells were incubated as suspension cells in a 37° C. incubator under 5% CO2, with the medium replaced every other day, and 2 days for 1 passage. The cells were harvested at the 3rd passage, with a cell concentration of 2×10^5/10 μl.
3. Establishment of bone cancer pain model in rat: the rats were operated at the left knee with a small incision after anesthesia (40 mg/kg of pentobarbital sodium) according to sterile surgical operation procedures, the muscle was stripped off gently and the patellar ligament is cut open to expose the distal femur, with 1 mm syringe needle inserted from the intercondylar fossa vertically into the marrow cavity, with an inserting distance no more than 5 mm to prevent punching. Then a 20 μl micro-injector was inserted into the marrow cavity to slowly inject 10 μl of a suspension containing the Walker 256 cells (2×10^5 cancer cells per 10 μl). The injector was stayed there for a few minutes after the injection, and then the needle pinhole was immediately sealed with sterile bone wax. The tumor cells leaking out of the marrow cavity were killed with 75% ethyl alcohol, and then the rat was sutured under sterile conditions layer by layer. The same operation was performed in the sham operation group, except that only the same volume of sterile saline was injected into the marrow cavity slowly.
6. Drug intervention: On day 18 after the surgical operation, the SD rats of the operation group were randomized into 6 groups, i.e., respectively the model group; non-crystalline NB001 group (20 mg/kg, i.g.); the group of the crystal of the present invention (20 mg/kg, i.g.); morphine (2 mg/kg, i.p.); and gabapentin (100 mg/kg, i.g.). The new crystal form and non-crystalline form of the AC1 inhibitor NB001 were both formulated with sterile saline, and morphine and gabapentin were used as positive control drugs. All drugs were administered twice daily for 3 days, and the pain threshold was measured within 2 hours after the last administration on day 3
7. Assessment of rat pain behavior:
Paw withdrawal thermal latency (PWL): the PWL was measured by using a PL-200 thermal pain stimulator (8V, 50 W, with a strength of 100%). The time period since the time irradiating the middle portion of the planta pedis at the operation side of the rat with light till the time the rat lifted its leg to keep out of the light was TWL. To prevent tissue injury, a cut-off time of 80 s was set, each rat was measured for 3 times with an interval of 5 min, and the results were averaged.

[4] = test system: mice treated with yeast polysaccharide; assay: Bright/dark box test, visceral pain; format: in vivo; conditions: for % time in the open arm: Bright/dark box test, Visceral pain
Method: as §1
Bright/dark box test: The test procedure was carried out by using an improved method in accordance with the prior art. The device was composed of a rectangular organic glass box (44×8.5×25 cm^3), which is separated into bright and dark compartments with the equal size by using a door. A 60 watt lamp (400 lux) in turn-on state was placed at 30 cm above the box to irradiate the bright compartment. Each animal was first placed in the dark compartment for 20 seconds, and then the door leading to the bright compartment was open. The time each animal stayed in the dark compartment and the time each animal enters the bright compartment within 10 minutes were recorded.
In order to confirm the effect of the crystal of the present invention on inhibiting anxiety, mice were subjected to a bright/dark box test, and the results were as shown in Table 8. The physiological saline, non-crystalline NB001 (3 mg/kg), the crystal of the present invention (3 mg/kg), and Gabapentin (30 mg/kg) as a positive control were intraperitoneally injected (IP) into the mice treated with yeast polysaccharide respectively. The behaviors of Mice were observed 28 days after the yeast polysaccharide treatment.

[5] = Approximate solubility of BPCs in organic solvent and mixed solvent; format: physicochemical; conditions: organic solvent or mixture, thermodynamic from solid
Method: Into 7 mL vials were weighed 2.0 mg of the raw material respectively. Then appropriate amount of methanol, ethanol, isopropyl alcohol, n-butanol, acetonitrile, acetone, ethyl acetate, 2-methyl tetrahydrofuran, tetrahydrofuran, dioxane, n-pentyl alcohol, toluene, isopropyl alcohol+water (with a mass ratio of 3:1), acetonitrile+water (with a mass ratio of 3:1), acetone+water (with a mass ratio of 3:1), and ethanol+water (with a mass ratio of 3:1) were added into respective vials, and the mixture was shaken rapidly to dissolve the compound of the mixture until the solution becomes clear. The approximate solubility of the resultant bulk pharmaceutical chemicals (BPC) in an organic solvent and a mixed solvent was shown in Table 1 below.

[6] = test system: mice after neuropathic pain; assay: Bright/dark box test, neuropathic pain; format: in vivo
adenylate cyclase 1 = adenylate cyclase 1 (Homo sapiens, UniProt Q08828); conditions: described in WO2007/041863; cited from earlier work
[7] = test system: mice after neuropathic pain; assay: Elevated plus maze test (EPM), neuropathic pain; format: in vivo
Method: as §2
The other two sets of tests were conducted to test the effect of the crystal of the present invention on inhibiting anxiety caused by chronic pain and neuropathic pain.
as §3

adenylate cyclase 1, sequence (Q08828 whole entry): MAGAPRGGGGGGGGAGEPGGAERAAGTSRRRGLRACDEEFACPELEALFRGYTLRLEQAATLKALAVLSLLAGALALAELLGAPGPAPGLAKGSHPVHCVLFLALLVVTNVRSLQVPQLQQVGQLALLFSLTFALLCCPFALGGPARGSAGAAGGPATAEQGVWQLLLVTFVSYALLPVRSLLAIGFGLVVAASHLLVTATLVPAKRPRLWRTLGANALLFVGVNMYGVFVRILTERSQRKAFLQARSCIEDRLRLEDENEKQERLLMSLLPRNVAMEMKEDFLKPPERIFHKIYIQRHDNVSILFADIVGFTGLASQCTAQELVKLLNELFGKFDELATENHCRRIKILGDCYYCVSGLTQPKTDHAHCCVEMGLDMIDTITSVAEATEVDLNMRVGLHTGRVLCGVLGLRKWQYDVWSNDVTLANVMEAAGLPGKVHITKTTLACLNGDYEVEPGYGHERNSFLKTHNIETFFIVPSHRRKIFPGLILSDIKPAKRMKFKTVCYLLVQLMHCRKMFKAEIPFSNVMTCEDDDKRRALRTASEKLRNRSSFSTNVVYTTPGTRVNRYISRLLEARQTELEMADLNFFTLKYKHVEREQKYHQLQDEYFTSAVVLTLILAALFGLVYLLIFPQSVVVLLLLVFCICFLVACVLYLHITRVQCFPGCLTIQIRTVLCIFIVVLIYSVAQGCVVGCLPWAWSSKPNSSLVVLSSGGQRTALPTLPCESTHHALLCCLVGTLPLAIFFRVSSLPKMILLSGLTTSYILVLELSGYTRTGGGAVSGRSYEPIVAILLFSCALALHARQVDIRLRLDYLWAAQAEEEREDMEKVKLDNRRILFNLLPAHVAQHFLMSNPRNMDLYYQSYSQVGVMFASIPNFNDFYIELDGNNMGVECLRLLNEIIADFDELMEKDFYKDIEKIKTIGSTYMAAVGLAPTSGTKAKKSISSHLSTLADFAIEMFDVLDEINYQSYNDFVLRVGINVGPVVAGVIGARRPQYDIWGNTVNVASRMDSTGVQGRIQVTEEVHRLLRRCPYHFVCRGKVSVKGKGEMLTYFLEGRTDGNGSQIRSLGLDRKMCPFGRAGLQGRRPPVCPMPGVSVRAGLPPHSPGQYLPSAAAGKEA

Nc1ncnc2c1ncn2CCNCCCCCO [Old NB001, 5-(((2-(6-amino)-9H-purin-9-yl)ethyl)amino)pentan-1-ol]
Number of visceral pain scores ([1]; 3 mg/kg IP): 19.6 ± 1.2
therapeutic effect on chronic pain as compared with the positive control group ([1]; 3 mg/kg IP, Table 6, listed as non-crystalline NB001): significant therapeutic effects
therapeutic effect in EPM test as compared with the positive control group ([2]; 3 mg/kg IP, Table 7, listed as non-crystalline NB001): significant therapeutic effects
analgesic effect (PWL) as compared with the model group ([3]; 20 mg/kg, i.g.): better analgesic effect
therapeutic effect in bright/dark box test as compared with the positive control group ([4]; 3 mg/kg IP, Table 8, listed as non-crystalline NB001): significant therapeutic effects

Nc1ncnc2c1ncn2CCNCCCCCO [NB001, 5-(((2-(6-amino)-9H-purin-9-yl)ethyl)amino)pentan-1-ol]
solubility ([5]; 2-methyl tetrahydrofuran): < 2000 µg/mL
solubility ([5]; acetone): < 2000 µg/mL
solubility ([5]; acetone/water (mass ratio 3:1)): 100000 to 200000 µg/mL
solubility ([5]; acetonitrile): < 2000 µg/mL
solubility ([5]; acetonitrile/water (mass ratio 3:1)): 100000 to 200000 µg/mL
solubility ([5]; dioxane): < 2000 µg/mL
solubility ([5]; ethanol): 7000 to 10000 µg/mL (≈ 26.5 to 37.8 mM)
solubility ([5]; ethanol/water (mass ratio 3:1)): 100000 to 200000 µg/mL
solubility ([5]; ethyl acetate): < 2000 µg/mL
solubility ([5]; isopropyl alcohol): ~2000 µg/mL (≈ 7.57 mM)
solubility ([5]; isopropyl alcohol/water (mass ratio 3:1)): 70000 to 100000 µg/mL
solubility ([5]; methanol): 50000 to 66000 µg/mL (≈ 189 to 250 mM)
solubility ([5]; n-butanol): 2200 to 2500 µg/mL (≈ 8.32 to 9.46 mM)
solubility ([5]; n-pentyl alcohol): 3000 to 4000 µg/mL (≈ 11.3 to 15.1 mM)
solubility ([5]; tetrahydrofuran): < 2000 µg/mL
solubility ([5]; toluene): < 2000 µg/mL
% time in the open arm ([2]; 3 mg/kg IP, 3 mg/kg): 5.2 ± 0.7 (8) %
% time in the open arm ([6]; 3 mg/kg IP, 3 mg/kg): 10.1 ± 1.8 (8) %
inhibition of adenylate cyclase 1 (adenylate cyclase 1): capable of selectively inhibiting adenylate cyclase 1
% time in the open arm ([7]; 3 mg/kg IP, 3 mg/kg): 10.1 ± 1.8 (8) %
% time in the open arm ([4]; 3 mg/kg IP, 3 mg/kg): 5.2 ± 0.7 (8) %

NCC1(CC(=O)O)CCCCC1 [Gabapentin, gabapentin, reference compound]
Number of visceral pain scores ([1]; 30 mg/kg IP): 20.7 ± 1.9
% time in the open arm ([2]; 30 mg/kg IP): 8.6 ± 1.5 (8) %
% time in the open arm ([6]; 30 mg/kg IP): 9.6 ± 1.5 (7) %
% time in the open arm ([7]; 30 mg/kg IP): 9.6 ± 1.5 (7) %
analgesic effect (PWL) as compared with the model group ([3]; 100 mg/kg, i.g.): better analgesic effect
% time in the open arm ([4]; 30 mg/kg IP): 8.6 ± 1.5 (8) %

CN1CC[C@]23c4c5ccc(O)c4O[C@H]2[C@@H](O)C=C[C@H]3[C@H]1C5 [morphine, reference compound]
analgesic effect (PWL) as compared with the model group ([3]; 2 mg/kg, i.p.): better analgesic effect

Source: patent US9963457B2, “Crystal of 5-((2-(6-amino)-9H-purin-9-yl)ethyl)amino)pentan-1-o1” (FOREVER CHEER INTERNATIONAL LIMITED, priority 2016, dated 2018)
